How the values were obtained:
GPR40 [1] = molecular target: T1, GPR40 (Homo sapiens, UniProt O14842); assay: Inositol phosphate accumulation assay (A9_GPR40 cells); assay type: cell-based; set-up: expressed in transfected cells; host or cells: CHO cells stably transfected with GPR40 and aequorin; settings: inositol phosphate assay, A9_GPR40 cells, 1 hour; read-out: IP3 EC50
Summary of the method: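 [^3H] inositol phosphate accumulation was measured by SPA after 1 h compound exposure at 37° C in HBSS/10 mM LiCl containing HSA, ending with a 20 mM formic acid quench. The GPR40-transfected A9 cells had first been labelled overnight (16 h) with 1 μCi/mL ^3H-inositol.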

GPR40 [2] = molecular target: T1, GPR40; assay: Cell-based aequorin assay (CHO cells stably expressing GPR40 and aequorin); set-up: expressed in transfected cells; host or cells: CHO cells stably transfected with GPR40 and aequorin; settings: activation of human GPR40, CHO cells, 0.01% HSA
Summary of the method: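 CHO cells stably co-expressing GPR40 and aequorin, loaded with coelenterazine (1 ug/mL, 2 h, room temperature) in H/HBSS with 20 mM Hepes and 0.01% fatty acid-free HSA. Serially diluted compounds added; luminescence recorded over 20 s. EC50 from dose-response of maximum relative light units.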

T1 sequence (O14842 whole entry): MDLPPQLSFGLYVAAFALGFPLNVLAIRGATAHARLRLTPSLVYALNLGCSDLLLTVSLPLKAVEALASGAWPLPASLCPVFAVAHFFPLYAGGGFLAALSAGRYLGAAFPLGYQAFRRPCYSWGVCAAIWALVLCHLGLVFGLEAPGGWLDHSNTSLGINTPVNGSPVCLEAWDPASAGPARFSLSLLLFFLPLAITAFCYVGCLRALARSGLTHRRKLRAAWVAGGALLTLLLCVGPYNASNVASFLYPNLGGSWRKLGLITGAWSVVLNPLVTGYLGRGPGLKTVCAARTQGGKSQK

EC50 (GPR40 [1]) | EC50 (GPR40 [2]) | Compound
10 to 100 nM | 100 to 1000 nM | CCCC(CC(=O)O)c1cccc(OCc2ccc(-c3cc(OC)ccc3F)c(C3=CCCCCC3)c2)c1 (single isomer, unassigned) [Example 67.6, (3R)-3-(3-(((2-(1-Cyclohepten-1-yl)-2′-fluoro-5′-(methyloxy)-1,1′-biphenyl-4-yl)methyl)oxy)phenyl)hexanoic acid or (3S)-3-(3-(((2-(1-cyclohepten-1-yl)-2′-fluoro-5′-(methyloxy)-1,1′-biphenyl-4-yl)methyl)oxy)phenyl)hexanoic acid]
100 to 1000 nM | 100 to 1000 nM | CCCCOc1cc(COc2cccc(C(CCCC)CC(=O)O)c2)ccc1-c1cc(OC)ccc1F (single isomer, unassigned) [Example 71.2, (3R)-3-(3-(((2-(Butyloxy)-2′-fluoro-5′-(methyloxy)-1,1′-biphenyl-4-yl)methyl)oxy)phenyl)heptanoic acid or (3S)-3-(3-(((2-(butyloxy)-2′-fluoro-5′-(methyloxy)-1,1′-biphenyl-4-yl)methyl)oxy)phenyl)heptanoic acid]
100 to 1000 nM | 100 to 1000 nM | COc1ccc(F)c(-c2ccc(COc3cccc(C(C)CC(=O)O)c3)c(F)c2C(C)(C)C)c1 (single isomer, unassigned) [Example 64.10, (3R)-3-(3-(((2-(1,1-Dimethylethyl)-2′,3-difluoro-5′-(methyloxy)-1,1′-biphenyl-4-yl)methyl)oxy)phenyl)butanoic acid or (3S)-3-(3-(((2-(1,1-dimethylethyl)-2′,3-difluoro-5′-(methyloxy)-1,1′-biphenyl-4-yl)methyl)oxy)phenyl)butanoic acid]
100 to 1000 nM | 100 to 1000 nM | COc1cccc(-c2ccc(COc3cccc([C@H](C)CC(=O)O)c3)cc2C(C)(C)C)c1 (single isomer, unassigned) [Example 47, (3R)-3-(3-(((2-(1,1-Dimethylethyl)-3′-(methyloxy)-1,1′-biphenyl-4-yl)methyl)oxy)phenyl)butanoic acid or (3S)-3-(3-(((2-(1,1-dimethylethyl)-3′-(methyloxy)-1,1′-biphenyl-4-yl)methyl)oxy)phenyl)butanoic acid]
10 to 100 nM | 100 to 1000 nM | COc1cccc(-c2ccc(COc3cccc(C(CC(=O)O)CC4CC4)c3)cc2C2=CCCC2(C)C)c1 (single isomer, unassigned) [Example 69.2, (3R)-4-Cyclopropyl-3-(3-(((2-(5,5-dimethyl-1-cyclopenten-1-yl)-3′-(methyloxy)-1,1′-biphenyl-4-yl)methyl)oxy)phenyl)butanoic acid or (3S)-4-cyclopropyl-3-(3-(((2-(5,5-dimethyl-1-cyclopenten-1-yl)-3′-(methyloxy)-1,1′-biphenyl-4-yl)methyl)oxy)phenyl)butanoic acid]
> 1000 nM | 1000 to 10000 nM | COc1ccc(F)c(-c2ccc(COc3cccc([C@@H](CC(=O)O)C(F)(F)F)c3)cc2C(C)(C)C)c1 (single isomer, unassigned) [Example 6, (3R)-3-(3-(((2-(1,1-Dimethylethyl)-2′-fluoro-5′-(methyloxy)-1,1′-biphenyl-4-yl)methyl)oxy)phenyl)-4,4,4-trifluorobutanoic acid or (3S)-3-(3-(((2-(1,1-dimethylethyl)-2′-fluoro-5′-(methyloxy)-1,1′-biphenyl-4-yl)methyl)oxy)phenyl)-4,4,4-trifluorobutanoic acid]
100 to 1000 nM | 100 to 1000 nM | COc1cccc(-c2ccc(COc3cccc([C@@H](CC(=O)O)C4CC4)c3)cc2C(C)(C)C)c1 (single isomer, unassigned) [Example 12, (3S)-3-Cyclopropyl-3-(3-(((2-(1,1-dimethylethyl)-3′-(methyloxy)-1,1′-biphenyl-4-yl)methyl)oxy)phenyl)propanoic acid or (3R)-3-cyclopropyl-3-(3-(((2-(1,1-dimethylethyl)-3′-(methyloxy)-1,1′-biphenyl-4-yl)methyl)oxy)phenyl)propanoic acid]
10 to 100 nM | 100 to 1000 nM | C=CC1(c2cc(COc3cccc([C@@H](CC(=O)O)C4CC4)c3)ccc2-c2cc(OC)ncc2F)CCCC1 (single isomer, unassigned) [Example 66.67, (3S)-3-(3-(4-(5-Fluoro-2-methoxypyridin-4-yl)-3-(1-vinylcyclopentyl)benzyloxy)phenyl)-3-cyclopropylpropanoic acid or (3R)-3-(3-(4-(5-fluoro-2-methoxypyridin-4-yl)-3-(1-vinylcyclopentyl)benzyloxy)phenyl)-3-cyclopropylpropanoic acid]
< 10 nM | 100 to 1000 nM | COc1ccc(F)c(-c2c(F)cc(COc3cccc([C@@H](CC(=O)O)C4CC4)c3F)cc2[C@H]2CCCC2(C)C)c1 (single isomer, unassigned) [Example 83.20]
10 to 100 nM | 100 to 1000 nM | COc1ccc(F)c(-c2ccc(COc3cccc(C(CC(=O)O)C4CCC4)c3)cc2C2CCCC2(C)C)c1 (single isomer, unassigned) [Example 79.3]
10 to 100 nM | 100 to 1000 nM | CC[C@H](CC(=O)O)c1cccc(OCc2ccc(-c3cc(Cl)ccc3F)c(C3=CCCC3(C)C)c2)c1 (single isomer, unassigned) [Example 78.9, (3R)-3-(3-(((5′-Chloro-2-(5,5-dimethyl-cyclopenten-1-yl)-2′-fluoro-1,1′-biphenyl-4-yl)methyl)oxy)phenyl)pentanoic acid or (3S)-3-(3-(((5′-chloro-2-(5,5-dimethyl-1-cyclopenten-1-yl)-2′-fluoro-1,1′-biphenyl-4-yl)methyl)oxy)phenyl)pentanoic acid]
< 10 nM | 100 to 1000 nM | CCC(CC(=O)O)c1cc(F)cc(OCc2cc(C3CCCC3(C)C)c(-c3cc(OC)ccc3F)cc2F)c1 (single isomer, unassigned) [Example 88.3]
< 10 nM | 10 to 100 nM | COc1cc(-c2ccc(COc3cccc(C(CC(=O)O)C4CC4)c3)cc2C2CCCC2(C)C)c(F)cn1 (single isomer, unassigned) [Example 66.36]
100 to 1000 nM | 100 to 1000 nM | C=C(C)[C@H](CC(=O)O)c1cccc(OCc2ccc(-c3cccc(OC)c3)c(C(C)(C)C)c2)c1 (single isomer, unassigned) [Example 56, (3S)-3-(3-(((2-(1,1-Dimethylethyl)-3′-(methyloxy)-1,1′-biphenyl-4-yl)methyl)oxy)phenyl)-4-methyl-4-pentenoic acid or (3R)-3-(3-(((2-(1,1-dimethylethyl)-3′-(methyloxy)-1,1′-biphenyl-4-yl)methyl)oxy)phenyl)-4-methyl-4-pentenoic acid]
< 10 nM | 100 to 1000 nM | COc1ccc(F)c(-c2ccc(COc3cccc(C(CC(=O)O)CC4CC4)c3F)cc2C2CCCCC2(C)C)c1 (single isomer, unassigned) [Example 84.6]
10 to 100 nM | 100 to 1000 nM | COc1ccc(F)c(-c2ccc(COc3cccc([C@H](C)CC(=O)O)c3)cc2C2=CCCC2(C)C)c1 (single isomer, unassigned) [Example 55, (3R)-3-(3-(((2-(5,5-Dimethyl-1-cyclopenten-1-yl)-2′-fluoro-5′-(methyloxy)-1,1′-biphenyl-4-yl)methyl)oxy)phenyl)butanoic acid or (3S)-3-(3-(((2-(5,5-dimethyl-1-cyclopenten-1-yl)-2′-fluoro-5′-(methyloxy)-1,1′-biphenyl-4-yl)methyl)oxy)phenyl)butanoic acid]
< 10 nM | 10 to 100 nM | COCCO[C@H](c1cc(COc2cccc([C@@H](CC(=O)O)CC3CC3)c2)ccc1-c1cc(OC)ccc1F)C(C)(C)C (single isomer, unassigned) [Example 69.23]
10 to 100 nM | 100 to 1000 nM | COc1ccc(F)c(-c2ccc(COc3cccc(C(C)CC(=O)O)c3)cc2C2CCCC2(C)C)c1 (single isomer, unassigned) [Example 64.22, (3R)-3-(3-(((2-(2,2-Dimethylcyclopentyl)-2′-fluoro-5′-(methyloxy)-1,1′-biphenyl-4-yl)methyl)oxy)phenyl)butanoic acid or (3S)-3-(3-(((2-(2,2-dimethylcyclopentyl)-2′-fluoro-5′-(methyloxy)-1,1′-biphenyl-4-yl)methyl)oxy)phenyl)butanoic acid]
< 10 nM | 10 to 100 nM | COc1ccc(F)c(-c2ccc(COc3cccc(C(CC(=O)O)C4CC4)c3)cc2C(C)C(C)(C)C)c1 (single isomer, unassigned) [Example 66.19]
10 to 100 nM | 100 to 1000 nM | COc1cccc(-c2ccc(COc3cccc(C(CC(=O)O)C4CC4)c3)cc2C2CCCCCC2)c1 (single isomer, unassigned) [Example 66.9, (3S)-3-(3-(((2-Cycloheptyl-3′-(methyloxy)-1,1′-biphenyl-4-yl)methyl)oxy)phenyl)-3-cyclopropylpropanoic acid or (3R)-3-(3-(((2-cycloheptyl-3′-(methyloxy)-1,1′-biphenyl-4-yl)methyl)oxy)phenyl)-3-cyclopropylpropanoic acid]
< 10 nM | 100 to 1000 nM | CCC(CC(=O)O)c1cccc(OCc2cc(C3CCCC3(C)C)c(-c3cc(OC)ccc3F)cc2F)c1 (single isomer, unassigned) [Example 78.10]
